Where two headings read alike, the source gives them in different places.

Assay [1] addresses T1, Pim1 kinase (Homo sapiens (Human), UniProt P11309). The assay is described as follows: biochemical.
The next assay has as its target Pim3 kinase (Homo sapiens (Human), UniProt Q86V86). The settings on record: read-out: Pim3 IC50.
Assay [2] addresses T1, Pim1 kinase. The settings on record: read-out: Pim1 IC50.

T1 sequence (P11309 whole entry): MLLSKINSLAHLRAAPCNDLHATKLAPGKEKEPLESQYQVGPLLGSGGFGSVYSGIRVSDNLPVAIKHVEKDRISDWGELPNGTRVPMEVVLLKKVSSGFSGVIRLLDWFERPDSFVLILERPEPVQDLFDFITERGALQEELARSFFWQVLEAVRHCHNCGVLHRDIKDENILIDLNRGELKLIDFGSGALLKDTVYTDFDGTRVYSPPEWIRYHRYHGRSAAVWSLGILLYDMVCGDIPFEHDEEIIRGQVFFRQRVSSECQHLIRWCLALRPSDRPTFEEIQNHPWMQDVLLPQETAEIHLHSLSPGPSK

On to `Nc1ccc(-c2c(F)cccc2F)nc1C(=O)Nc1cnccc1[C@@H]1CC[C@H](O)[C@H](N)C1` (stereo in doubt) [Example 102, 3-amino-N-(4-(3-amino-4-hydroxycyclohexyl)pyridin-3-yl)-6-(2,6-difluorophenyl)picolinamide], for which the IC50 (as a rule, the concentration that gives 50% inhibition) against Pim1 kinase [1] came to 1 nM.
Take `N[C@H]1CCC[C@@H](c2ccncc2NC(=O)c2ccc(F)c(-c3c(F)ccc(O)c3F)n2)C1` [Example 124, N-(4-((1R,3S)-3-aminocyclohexyl)pyridin-3-yl)-6-(2,6-difluoro-3-hydroxyphenyl)-5-fluoropicolinamide]: the IC50 at Pim3 kinase and on Pim1 kinase [2] was 1 nM throughout.
For the molecule `C[C@H]1C[C@@H](c2ccncc2NC(=O)c2ccc(F)c(-c3cccc(C(F)(F)F)c3F)n2)C[C@@H](N)[C@@H]1O` [Example 127, N-(4-((1R,3R,4R,5S)-3-amino-4-hydroxy-5-methylcyclohexyl)pyridin-3-yl)-5-fluoro-6-(2-fluoro-3-(trifluoromethyl)phenyl)picolinamide], the IC50 came out at 27 nM on Pim3 kinase and 11 nM on Pim1 kinase [2].
In the case of `C[C@@H]1C[C@H](N)C[C@H](c2ccncc2NC(=O)c2ccc(F)c(-c3c(F)ccc(F)c3F)n2)C1` [Example 129, N-(4-((1R,3S,5S)-3-amino-5-methylcyclohexyl)pyridin-3-yl)-5-fluoro-6-(2,3,6-trifluorophenyl)picolinamide], the values for the IC50 at Pim3 kinase and on Pim1 kinase [2] were 2 nM and 1 nM, respectively.
Taken in the same sequence, the figures for `Nc1cc(F)c(-c2ccncc2F)nc1C(=O)Nc1cnccc1[C@@H]1CCC[C@H](N)C1` [Example 136, 5-amino-N-(4-((1R,3S)-3-aminocyclohexyl)pyridin-3-yl)-3,3′-difluoro-2,4′-bipyridine-6-carboxamide] were 9 nM and 2 nM.
Regarding `CC1CC(c2ccncc2NC(=O)c2ccc(F)c(-c3c(F)cccc3F)n2)=CC(O)C1` (centres unmarked) [Example 137, 6-(2,6-difluorophenyl)-5-fluoro-N-(4-(3-hydroxy-5-methylcyclohex-1-enyl)pyridin-3-yl)picolinamide], the results for the IC50 at Pim3 kinase and at Pim1 kinase [2] were 7 nM and 1 nM, respectively.

The values are drawn from patent US8592455B2 (priority 2008, dated 2013).
